Entries after “also recorded” stand apart in the source; their conditions may differ. Where two headings read alike, the source gives them in different places.
Legend:
HLA-A*02:01 = HLA-A*02:01 (Homo sapiens, UniProt P04439, D140Y/D185E/D98H/E176V/E277Q/G131W/G231S/I119V/I121R/I166T/I218V/L300P/L318F/N151K/N90K/P208A/P217A/Q86G/Q94H/R138H/R169H/T345S); assay type: binding
HLA-A*26:01 = HLA-A*26:01 (Homo sapiens, UniProt P04439, A114D/A173T/A270S/D101N/D185E/E277Q/E87N/F33Y/G231S/I121R/I218V/K168Q/L180W/L300P/L318F/P208A/P217A/Q86R/Q94H/R138Q/S129P/T187R/T323A/T345S/V100A/V358M); assay type: binding
[1] = tested on: CD8+ T cells of HLA-A*02:01 subjects; assay type: cell-based, human
[2] = tested on: CD8+ T cells of convalescent COVID-19 individuals; details: ref Tarke et al., 2020; cited from earlier work
[3] = tested on: CD8+ T cells of HLA-B*07:02 subjects; assay type: cell-based, human

Q: For ELPDEFVVVTV, which “binding to A*02:01 (in words)” value (HLA-A*02:01) is on record?
A: binds

Q: What about the “binding to A*26:01 (in words)” value (HLA-A*26:01) of the same sequence?
A: binds

Q: And the “CD8+ T cell response (in words)” value ([1]; nine HLA-A*02:01 samples (seven COVID-19 convalescent and two unexposed))?
A: top five reactive peptides; also recorded: strongest CD8+ response among all tested HLA-I peptides

Q: For KLWAQCVQL [reference compound], which “CD8+ T cell response (in words)” value [1] is on record?
A: weak responses

Q: With QLTPTWRVY as the sequence, how does the “T cell responses in convalescent COVID-19 individuals expressing the predicted alleles” value [2] read?
A: elicit T cell responses

Q: For RPPIFIRRL, which “CD8+ T cell response (in words)” value [3] is on record?
A: positive reactivity
